The text below walks through data of ChEMBL document CHEMBL1201862, “PubChem BioAssay data set” (2004).

SMILES strings stand for the structures.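 The compound was tested at five concentrations on cells cultured in 96-well plates, with a 48-hour exposure period. Abbreviation: GI50, concentration required for 50% inhibition of growth.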 Active and inactive are the calls of the source. No stated cut-off is given here; in the data, active = GI50 up to about 1.1 µM and inactive = higher.

Among the test systems are 786-0; A498; COLO 205; HCT-116; HOP-62; HT-29; M14; M19-MEL; Malme-3M; NCI-H23; SF-539; SK-MEL-28; SN12C; SNB-75; SW-620; NCI-H226; NCI-H522; BT-549; Hs-578T; MDA-N.
Assay in all cases: growth of human tumour cells (NCI), 48 h

`Cc1ccccc1C(=O)Oc1ccc(OCc2ccccc2)cc1`: the GI50 was 51.2 µM (inactive) in the test with 786-0; 34.5 µM (inactive) with A498; > 100 µM (inactive) with COLO 205; 53.5 µM (inactive) in the test with HCT-116; > 100 µM (inactive) in the test with HOP-62; 63.8 µM (inactive) in the test on HT-29. In addition, the GI50 was > 100 µM (inactive) in the test with M14; > 100 µM (inactive) with M19-MEL; > 100 µM (inactive) in the test with Malme-3M; 66.8 µM (inactive) in the test on NCI-H23; > 100 µM (inactive) in the test with SF-539; > 100 µM (inactive) with SK-MEL-28. In addition, the GI50 in the test with SN12C is 93.8 µM (inactive); with SNB-75, > 100 µM (inactive); in the test on SW-620, > 100 µM (inactive).
On to `O=C1C=C(N2CCCC2)C=C(N2CCCC2)C1`, for which the GI50 in the test with 786-0, in the test on COLO 205, in the test on HCT-116, in the test with HOP-62, in the test with HT-29 and with M14 was > 100 µM (inactive) throughout. Besides, the GI50 in the test on M19-MEL is 28.1 µM (inactive); with Malme-3M it was > 100 µM (inactive); in the test on NCI-H226, > 100 µM (inactive); in the test with NCI-H23, > 100 µM (inactive); with NCI-H522, > 100 µM (inactive); in the test on SK-MEL-28, > 100 µM (inactive). Further, the figures for the GI50 in the test with SNB-75 and in the test with SW-620 were 85.1 µM (inactive) and > 100 µM (inactive), respectively.
Regarding `CCCC[C@H]1C(=O)O[C@H](C)[C@H](NC(=O)c2cccc(NC=O)c2OC)C(=O)O[C@@H](C)[C@@H]1OC(=O)C(C)CC.CCCC[C@H]1C(=O)O[C@H](C)[C@H](NC(=O)c2cccc(NC=O)c2OC)C(=O)O[C@@H](C)[C@@H]1OC(=O)CC(C)C` (stereo partly drawn), the GI50 was 12.1 µM (inactive) with 786-0; 8.81 µM (inactive) with A498; 16.8 µM (inactive) in the test with BT-549; 11.7 µM (inactive) with COLO 205; 12.1 µM (inactive) in the test on HCT-116; 17.8 µM (inactive) in the test on HOP-62. The GI50 in the test on HT-29 is 9.84 µM (inactive); with Hs-578T, 17.7 µM (inactive); with M14, 14.6 µM (inactive); in the test with MDA-N, 17.6 µM (inactive); in the test with Malme-3M, 15.8 µM (inactive); with NCI-H226, 12.2 µM (inactive). The GI50 in the test on NCI-H23 was 7.36 µM (inactive); in the test on NCI-H522 it was 8.51 µM (inactive); in the test on SF-539, 15.8 µM (inactive); with SK-MEL-28, 21.6 µM (inactive); with SN12C, 17.3 µM (inactive); in the test on SNB-75, 8.02 µM (inactive). The GI50 in the test on SW-620 is 20.3 µM (inactive).
With `Cc1cccc(NC2=NC(=O)C(CC(=O)Nc3cccc(C)c3C)S2)c1` (stereo not drawn), the GI50 with 786-0, with COLO 205, in the test on HCT-116, in the test on HOP-62, with HT-29 and in the test with M14 was > 100 µM (inactive) throughout. Besides, the GI50 in the test with M19-MEL, with Malme-3M, in the test with NCI-H226, with NCI-H23, in the test on SK-MEL-28 and in the test with SN12C was > 100 µM (inactive) in each case. In addition, the GI50 in the test on SNB-75 and with SW-620 was > 100 µM (inactive) in each case.
In the case of `Nc1ccc2ncc(Nc3ccc(F)cc3)nc2c1`, the GI50 in the test with 786-0, in the test with COLO 205, in the test with HCT-116, with HOP-62, in the test on HT-29 and in the test on M14 was > 100 µM (inactive) in each case. The GI50 is 94.6 µM (inactive) in the test on M19-MEL; > 100 µM (inactive) with Malme-3M; 37.5 µM (inactive) with NCI-H226; > 100 µM (inactive) in the test on NCI-H23; > 100 µM (inactive) in the test with NCI-H522; 90.4 µM (inactive) in the test on SF-539. The GI50 with SK-MEL-28, in the test on SN12C, in the test on SNB-75 and with SW-620 was > 100 µM (inactive) in each case.
For `Cc1cc(C)c2nc3c(c(C(O)C4CCCCN4)c2c1)CC/C3=C\c1ccc(Cl)cc1` (stereo not drawn), the GI50 with 786-0 was 67.8 µM (inactive); in the test on A498 it was > 100 µM (inactive); with BT-549, > 100 µM (inactive); with COLO 205, 41 µM (inactive); with HCT-116, 32 µM (inactive); in the test on HOP-62, 75.9 µM (inactive). In addition, the GI50 with HT-29 was 30.4 µM (inactive); in the test with Hs-578T it was > 100 µM (inactive); in the test with M14 it was 75.9 µM (inactive); in the test on MDA-N, 50.4 µM (inactive); in the test on Malme-3M, > 100 µM (inactive); in the test with NCI-H226, > 100 µM (inactive). Also, the GI50 in the test on NCI-H23 was 85.9 µM (inactive); in the test on NCI-H522, 34 µM (inactive); in the test on SF-539, > 100 µM (inactive); with SK-MEL-28 it was > 100 µM (inactive); in the test with SN12C, 38.1 µM (inactive); in the test with SNB-75, 54 µM (inactive). Besides, the GI50 in the test with SW-620 was 55.3 µM (inactive).
Consider `NC(=O)C12CC3CC(CC(F)(C3)C1)C2`, for which the GI50 in the test with 786-0, in the test on A498, in the test on COLO 205, in the test on HCT-116, in the test on HOP-62 and in the test on HT-29 was > 100 µM (inactive) throughout. Moreover, the GI50 with M14, with M19-MEL, in the test on Malme-3M, with NCI-H23, with NCI-H522 and with SF-539 was > 100 µM (inactive) in each case. The GI50 was > 100 µM (inactive) in the test on SK-MEL-28, 57.4 µM (inactive) with SNB-75 and > 100 µM (inactive) in the test on SW-620.
As for `CC#COS(=O)(=O)c1ccc(C)cc1`, the GI50 with 786-0 was 44.4 µM (inactive); with A498 it was > 10 µM (inactive); with COLO 205, 39.9 µM (inactive); with HCT-116, 37.5 µM (inactive); with HOP-62, > 100 µM (inactive); in the test on HT-29, 45.9 µM (inactive). Further, the GI50 was 35.6 µM (inactive) with M14; 70.1 µM (inactive) in the test on M19-MEL; 88.3 µM (inactive) with Malme-3M; 89.3 µM (inactive) with NCI-H226; 65.6 µM (inactive) in the test on NCI-H23; 49.5 µM (inactive) with NCI-H522. Further, the results for the GI50 in the test on SF-539, in the test on SN12C and in the test on SW-620 were > 100 µM (inactive), > 100 µM (inactive) and 42.7 µM (inactive), respectively.
Consider `C=CCC1C(=O)C(C(=O)OC)N2CCc3c([nH]c4ccccc34)C12` (stereo not drawn), for which the GI50 in the test with 786-0, in the test on A498, in the test with COLO 205, with HCT-116, in the test on HOP-62 and in the test with HT-29 was > 100 µM (inactive) in each case. Moreover, the GI50 with M14 was > 100 µM (inactive); with M19-MEL, > 100 µM (inactive); in the test with Malme-3M it was > 100 µM (inactive); in the test with NCI-H23 it was > 100 µM (inactive); with NCI-H522, 80 µM (inactive); with SF-539, > 100 µM (inactive). Moreover, the GI50 in the test with SK-MEL-28, with SN12C and in the test with SW-620 was > 100 µM (inactive) each time.
Turning to `CC(=O)Oc1c(-c2ccccc2)[nH]c2cc([N+](=O)[O-])c(/C(Cl)=C/c3ccccc3)cc12`, the GI50 is 11.2 µM (inactive) in the test on 786-0; 2.88 µM (inactive) in the test with A498; 4 µM (inactive) in the test on COLO 205; 3.91 µM (inactive) in the test on HCT-116; 25.9 µM (inactive) in the test on HOP-62; 3.2 µM (inactive) in the test on HT-29. Further, the GI50 is 7.73 µM (inactive) in the test on M14; 3.31 µM (inactive) in the test with M19-MEL; 4.1 µM (inactive) in the test on Malme-3M; 4 µM (inactive) in the test on NCI-H226; 2.47 µM (inactive) with NCI-H23; 4.86 µM (inactive) in the test with NCI-H522. Also, the GI50 with SK-MEL-28 was 6.37 µM (inactive); with SN12C, 4.86 µM (inactive); with SNB-75 it was 15.6 µM (inactive); in the test with SW-620, 8.89 µM (inactive).
In the case of `Nc1nc(N)c(CCCCc2ccccc2)c(/C=C/c2ccc([N+](=O)[O-])cc2)n1`, the GI50 with 786-0 is 0.785 µM (active); with COLO 205, 3.39 µM (inactive); in the test with HCT-116, 1.16 µM (inactive); in the test on HOP-62, 2.77 µM (inactive); with HT-29, 0.925 µM (active); with M14, 1.89 µM (inactive). Besides, the GI50 is 3.36 µM (inactive) in the test with M19-MEL; 1.67 µM (inactive) in the test on Malme-3M; 26.1 µM (inactive) in the test with NCI-H226; 3.86 µM (inactive) in the test with NCI-H23; 2.24 µM (inactive) in the test with NCI-H522; 2.16 µM (inactive) in the test on SF-539. The GI50 in the test with SK-MEL-28 is 3.33 µM (inactive); in the test with SN12C, 2.74 µM (inactive); in the test with SNB-75 it was 2.47 µM (inactive); in the test with SW-620, 1.24 µM (inactive).
Turning to `CC(=O)NC1C(O)C(O)C(CO)OC1n1nc(SCc2ccccc2)c(=O)[nH]c1=O` (stereo not drawn), the GI50 in the test with 786-0, in the test on A498, with BT-549, in the test on COLO 205, with HCT-116 and with HOP-62 was > 100 µM (inactive) throughout. Further, the GI50 in the test with HT-29, in the test on Hs-578T, in the test with M14, with MDA-N, in the test with Malme-3M and in the test with NCI-H226 was > 100 µM (inactive) throughout. In addition, the GI50 with NCI-H23 was > 100 µM (inactive); with NCI-H522, > 100 µM (inactive); with SF-539, > 100 µM (inactive); with SK-MEL-28, > 100 µM (inactive); in the test with SN12C it was > 100 µM (inactive); with SNB-75, > 65 µM (inactive). Also, the GI50 in the test with SW-620 was > 100 µM (inactive).
